Assay [1] concerns the target A/Mississippi/03/01 H1N1 wild type NA (Influenza A virus, UniProt Q289M4). The format is biochemical, influenza virus A/Mississippi/03/01 H1N1.
Assay [2] addresses clade 2 H5N1 virus from Indonesia N1 NA (Influenza A virus, UniProt Q6R2G6). The format is biochemical, avian influenza H5N1 clade 2 (Indonesia).
For assay [3], the target named is H1N1 pandemic influenza virus A/Swine/Shepparton/2009 NA (Influenza A virus, UniProt I6NQT4). The assay is described as follows: biochemical. The format is biochemical, influenza virus A/Swine/Shepparton/2009 pandemic H1N1.
The target in assay [4] is A/Fukui/45/04 H3N2 wild type NA (Influenza A virus, UniProt C0IZY2). The format is biochemical, influenza virus A/Fukui/45/04 H3N2.
For assay [5], the target named is clade 1 H5N1 virus from Vietnam N1 NA (Influenza A virus, UniProt Q6DPL2). The assay is classed as biochemical, avian influenza H5N1 clade 1 (Vietnam).
Assay [6] addresses B/Perth/211/01 influenza B wild type NA (Influenza B virus, UniProt Q3S340). The assay is classed as biochemical, influenza B virus B/Perth/211/01.
Another assay relates to N2 NA. Conditions: cited from earlier work.
Where [7] appears, read: read-out: IC50 at 10 min, 30' Pre.
[8] abbreviates: read-out: IC50 at 10 min, No pre.
Setting [9] is: read-out: IC50 on relative slope, Rates time interval 30-40.
Setting [10] is: read-out: IC50 on relative slope, Rates time interval 40-50.
[11] abbreviates: read-out: IC50 on relative slope, Rates time interval 50-60.
Where [12] appears, read: read-out: final IC50 after 60 min, 30' pre.
[13] abbreviates: read-out: final IC50 after 60 min, No pre.

The source of these data is publication PMC3157426 (PLoS ONE, 2011).

Broadly, the IC50 is the concentration that inhibits the measured activity by half.

“And” between values parts separate entries of the source, which are not always exact repeats. Equal entries are not always repeated. Where two headings read alike, the source gives them in different places.

As for oseltamivir carboxylate, the IC50 in assay [1] (setting [7]) was 0.5 nM; in assay [1] (setting [8]) it was 12.2 nM; in assay [1] (read-out: IC50 on relative slope, Rates time interval 20-30) it was 6.2 nM and 3.9 nM; in assay [1] (setting [9]), 6.7 nM and 4.6 nM; in assay [1] (setting [10]), 6.8 nM and 5 nM; in assay [1] (setting [11]) it was 7.9 nM and 5.6 nM. Also, the IC50 in assay [1] (setting [12]) was found to be 3.1 nM; in assay [1] (setting [13]), 7.3 nM; in assay [2] (setting [7]), 0.9 nM; in assay [2] (setting [8]) it was 28.3 nM; in assay [2] (setting [12]), 19.6 nM; in assay [2] (setting [13]), 21.4 nM. In addition, the concentration for half-maximal inhibition (IC50) in assay [3] (setting [7]) was 0.5 nM; in assay [3] (setting [8]) it was 15.8 nM; in assay [3] (setting [12]) it was 5.1 nM; in assay [3] (setting [13]), 6.8 nM; in assay [4] (setting [7]), 0.5 nM; in assay [4] (setting [8]), 30.4 nM. The IC50 in assay [4] (setting [9]) was 3.8 nM and 2.5 nM; in assay [4] (setting [10]), 3.8 nM and 3.3 nM; in assay [4] (setting [11]), 3.4 nM; in assay [4] (setting [12]) it was 1.7 nM; in assay [4] (setting [13]), 5.3 nM. Further, the “binding phenotype (slow or fast binding)” value in assay [4] is “slow binding phenotype”.
For the compound `CCC(CC)[C@H](NC(C)=O)[C@@H]1[C@H](O)[C@@H](C(=O)O)C[C@H]1N=C(N)N` [Peramivir, peramivir], the “10'/60 (ratio of IC50s), No pre” value was found to be 6.5 in assay [1]; 7.0 in assay [2]; 6.6 in assay [5]; 5.1 in assay [3]; 8.7 in assay [4]; 9.3 in assay [6]. The “60'/10 (ratio of IC50s), 30' Pre” value is 1.4 in assay [1]; 1.4 in assay [2]; 1.3 in assay [5]; 1.5 in assay [3]; 1.3 in assay [4]; 1.5 in assay [6]. The “No pre/pre (ratio of 60 min IC50s)” value in assay [1] is 8.2; in assay [2], 9.3; in assay [5], 21.0; in assay [3], 7.1; in assay [4], 9.0; in assay [6], 9.8. Further, the IC50 in assay [1] (setting [7]) is 0.3 nM; in assay [1] (setting [8]), 20.2 nM; in assay [1] (setting [12]), 0.4 nM; in assay [1] (setting [13]), 3.1 nM; in assay [2] (setting [7]), 0.4 nM; in assay [2] (setting [8]) it was 37.7 nM. In addition, the 50% inhibitory concentration (IC50) was determined as 0.6 nM in assay [2] (setting [12]); 5.4 nM in assay [2] (setting [13]); 0.2 nM in assay [5] (setting [7]); 40.9 nM in assay [5] (setting [8]); 0.3 nM in assay [5] (setting [12]); 6.2 nM in assay [5] (setting [13]). The IC50 in assay [3] (setting [7]) amounted to 0.2 nM; in assay [3] (setting [8]), 10.1 nM; in assay [3] (setting [12]), 0.3 nM; in assay [3] (setting [13]), 2 nM; in assay [4] (setting [7]) it was 1 nM; in assay [4] (setting [8]), 103 nM. In addition, the IC50 in assay [4] (setting [12]) was 1.3 nM; in assay [4] (setting [13]) it was 11.9 nM; in assay [6] (setting [7]), 1.9 nM; in assay [6] (setting [8]), 259 nM; in assay [6] (setting [12]) it was 2.8 nM; in assay [6] (setting [13]) it was 27.8 nM.
In the case of `CC(=O)N[C@H]1[C@H]([C@H](O)[C@H](O)CO)OC(C(=O)O)=C[C@@H]1N=C(N)N` [Zanamivir, zanamivir], in the assay with N2 NA, the “variation of the apparent Ki depending on the incubation conditions” value was 10,000 fold. Also, the IC50 in assay [3] (IC50 at 10 min, 30' Pre) came to 0.5 nM; in assay [3] (IC50 at 10 min, No pre), 29.5 nM; in assay [3] (final IC50 after 60 min, 30' pre), 1.4 nM; in assay [3] (final IC50 after 60 min, No pre), 5.8 nM.
Consider `CC(=O)N[C@H]1[C@H]([C@H](O)[C@H](O)CO)OC(C(=O)O)=C[C@@H]1O` [DANA, 2-deoxy,2,3-dehydro N-acetyl neuraminic acid], for which the “binding phenotype (slow or fast binding)” value in assay [1], in assay [2], in assay [5], in assay [3], in assay [4] and in assay [6] was “fast binding” in each case.
